Experiment [1] concerns the target T1, Ephrin type-B receptor 2 (Homo sapiens) (UniProt P29323).
T1 sequence (whole entry): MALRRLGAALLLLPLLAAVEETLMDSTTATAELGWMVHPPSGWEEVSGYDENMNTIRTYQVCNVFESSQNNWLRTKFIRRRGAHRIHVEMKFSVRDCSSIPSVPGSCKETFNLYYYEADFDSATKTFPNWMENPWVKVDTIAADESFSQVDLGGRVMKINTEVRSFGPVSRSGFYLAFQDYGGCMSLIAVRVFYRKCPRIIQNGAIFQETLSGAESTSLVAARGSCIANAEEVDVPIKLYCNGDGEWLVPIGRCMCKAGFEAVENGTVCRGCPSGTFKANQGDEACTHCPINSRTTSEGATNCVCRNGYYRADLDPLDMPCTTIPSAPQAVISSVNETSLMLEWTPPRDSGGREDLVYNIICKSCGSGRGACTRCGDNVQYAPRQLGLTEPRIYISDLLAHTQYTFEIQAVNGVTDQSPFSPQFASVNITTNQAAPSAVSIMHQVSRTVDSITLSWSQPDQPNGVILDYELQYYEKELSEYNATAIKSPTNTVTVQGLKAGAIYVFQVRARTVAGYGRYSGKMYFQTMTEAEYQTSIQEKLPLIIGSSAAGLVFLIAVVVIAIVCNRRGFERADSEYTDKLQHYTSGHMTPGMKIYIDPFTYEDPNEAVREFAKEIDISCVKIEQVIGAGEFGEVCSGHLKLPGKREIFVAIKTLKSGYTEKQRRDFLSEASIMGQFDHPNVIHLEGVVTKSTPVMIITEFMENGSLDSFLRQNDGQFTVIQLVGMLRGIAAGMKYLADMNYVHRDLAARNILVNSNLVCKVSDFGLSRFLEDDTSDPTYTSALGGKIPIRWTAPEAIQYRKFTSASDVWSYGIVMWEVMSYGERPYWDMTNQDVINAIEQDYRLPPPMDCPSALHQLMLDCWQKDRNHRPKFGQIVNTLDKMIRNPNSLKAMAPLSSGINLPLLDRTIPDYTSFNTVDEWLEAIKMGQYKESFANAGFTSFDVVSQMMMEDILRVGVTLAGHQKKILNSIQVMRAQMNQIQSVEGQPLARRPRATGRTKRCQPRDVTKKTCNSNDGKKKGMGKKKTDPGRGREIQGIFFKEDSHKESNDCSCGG
The experiment is described as follows: Inhibition of EPHB2 (unknown origin) at 1 uM by Ambit Kinomescan binding assay relative to control.

For experiment [2], the target named is Mitogen-activated protein kinase 8 (Homo sapiens, UniProt P45983). The experiment is described as follows: Inhibition of JNK1 (unknown origin) at 1 uM by Ambit Kinomescan binding assay relative to control.
Mitogen-activated protein kinase 8, sequence (P45983 whole entry): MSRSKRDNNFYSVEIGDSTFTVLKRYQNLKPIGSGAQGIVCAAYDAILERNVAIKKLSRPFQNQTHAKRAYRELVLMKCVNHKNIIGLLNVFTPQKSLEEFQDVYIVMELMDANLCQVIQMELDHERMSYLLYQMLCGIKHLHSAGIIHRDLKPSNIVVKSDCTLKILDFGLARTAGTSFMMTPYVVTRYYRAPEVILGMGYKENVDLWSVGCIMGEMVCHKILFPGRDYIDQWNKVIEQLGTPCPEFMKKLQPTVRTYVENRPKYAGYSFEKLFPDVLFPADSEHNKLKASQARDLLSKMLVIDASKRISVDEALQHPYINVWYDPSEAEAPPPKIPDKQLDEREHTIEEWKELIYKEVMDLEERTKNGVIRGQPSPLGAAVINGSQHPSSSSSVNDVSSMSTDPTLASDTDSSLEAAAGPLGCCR
Experiment [3] deals with T2, NUAK family SNF1-like kinase 2 (Homo sapiens) (UniProt Q9H093).
T2 sequence (whole entry): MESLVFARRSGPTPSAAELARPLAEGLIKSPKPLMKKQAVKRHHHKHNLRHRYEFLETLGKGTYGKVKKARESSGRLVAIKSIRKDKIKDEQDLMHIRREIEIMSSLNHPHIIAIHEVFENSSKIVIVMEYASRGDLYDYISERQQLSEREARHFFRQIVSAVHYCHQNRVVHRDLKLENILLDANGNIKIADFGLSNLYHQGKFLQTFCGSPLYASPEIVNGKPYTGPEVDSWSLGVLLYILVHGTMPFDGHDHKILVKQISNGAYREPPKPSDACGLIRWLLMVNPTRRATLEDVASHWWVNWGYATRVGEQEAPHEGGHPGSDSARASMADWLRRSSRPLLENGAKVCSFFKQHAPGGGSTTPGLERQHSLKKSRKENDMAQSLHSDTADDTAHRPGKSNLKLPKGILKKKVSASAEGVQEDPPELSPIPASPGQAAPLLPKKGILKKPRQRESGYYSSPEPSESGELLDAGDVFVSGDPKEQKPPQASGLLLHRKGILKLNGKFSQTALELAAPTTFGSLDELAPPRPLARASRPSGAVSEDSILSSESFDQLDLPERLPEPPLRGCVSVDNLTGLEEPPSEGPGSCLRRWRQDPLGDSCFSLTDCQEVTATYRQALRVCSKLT
The experiment is described as follows: Inhibition of NuaK2 Lys1 labeling site in human A-375 cells at 5 uM by KiNativ Profiling analysis relative to control. Type of experiment: cell-based.

Experiment [4] concerns the target T3, Mitogen-activated protein kinase kinase kinase 3 (Homo sapiens) (UniProt Q99759).
T3 sequence (whole entry): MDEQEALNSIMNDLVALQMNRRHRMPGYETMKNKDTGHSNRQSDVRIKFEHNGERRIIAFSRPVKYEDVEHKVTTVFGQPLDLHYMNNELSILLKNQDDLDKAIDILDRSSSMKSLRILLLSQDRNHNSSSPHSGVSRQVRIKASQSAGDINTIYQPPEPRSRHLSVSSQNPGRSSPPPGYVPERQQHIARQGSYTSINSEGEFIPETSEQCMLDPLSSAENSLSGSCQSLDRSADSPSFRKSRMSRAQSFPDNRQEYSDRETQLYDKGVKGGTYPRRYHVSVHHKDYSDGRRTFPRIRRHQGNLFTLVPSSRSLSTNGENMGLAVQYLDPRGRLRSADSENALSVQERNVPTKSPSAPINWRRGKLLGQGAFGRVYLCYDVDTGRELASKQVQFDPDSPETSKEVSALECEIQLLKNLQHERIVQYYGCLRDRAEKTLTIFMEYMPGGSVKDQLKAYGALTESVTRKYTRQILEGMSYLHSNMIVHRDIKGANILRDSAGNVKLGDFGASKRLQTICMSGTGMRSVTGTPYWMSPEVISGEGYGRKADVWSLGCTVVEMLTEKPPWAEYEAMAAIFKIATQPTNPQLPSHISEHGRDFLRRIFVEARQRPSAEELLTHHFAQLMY
Kind of experiment: Inhibition of MAP3K3 (unknown origin) at 1 uM by Ambit Kinomescan binding assay relative to control; values are per cent of control.

For experiment [5], the target named is Cyclin-dependent kinase 9 (Homo sapiens) (UniProt P50750). Kind of experiment: Inhibition of CDK9 (unknown origin) at 10 uM by Ambit Kinomescan binding assay relative to control.
Cyclin-dependent kinase 9 (Homo sapiens), sequence (P50750 whole entry): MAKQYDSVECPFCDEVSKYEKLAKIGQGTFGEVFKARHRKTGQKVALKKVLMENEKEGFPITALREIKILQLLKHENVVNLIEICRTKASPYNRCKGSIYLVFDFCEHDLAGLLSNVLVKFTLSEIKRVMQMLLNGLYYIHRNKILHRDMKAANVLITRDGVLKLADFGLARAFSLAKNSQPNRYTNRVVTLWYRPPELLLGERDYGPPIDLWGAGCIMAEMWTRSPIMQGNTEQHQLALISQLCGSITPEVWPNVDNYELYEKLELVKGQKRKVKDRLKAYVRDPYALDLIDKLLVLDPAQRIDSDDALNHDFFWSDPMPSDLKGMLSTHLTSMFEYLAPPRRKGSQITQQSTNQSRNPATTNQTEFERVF
Experiment [6] addresses cAMP-dependent protein kinase catalytic subunit PRKX (Homo sapiens) (UniProt P51817). The experiment is described as follows: Inhibition of PRKX (unknown origin) at 10 uM by Ambit Kinomescan binding assay.
Experiment [7] addresses Serine/threonine-protein kinase RIO3 (Homo sapiens) (UniProt O14730). Kind of experiment: Inhibition of RIOK3 (unknown origin) at 10 uM by Ambit Kinomescan binding assay.
In experiment [8] the target is 1-phosphatidylinositol 3-phosphate 5-kinase (Homo sapiens) (UniProt Q9Y2I7). Kind of experiment: Inhibition of PIP5K3 ATP labeling site in human Huh-7 cells at 1 uM by KiNativ Profiling analysis relative to control. Type of experiment: cell-based.
1-phosphatidylinositol 3-phosphate 5-kinase (Homo sapiens), sequence (Q9Y2I7 whole entry): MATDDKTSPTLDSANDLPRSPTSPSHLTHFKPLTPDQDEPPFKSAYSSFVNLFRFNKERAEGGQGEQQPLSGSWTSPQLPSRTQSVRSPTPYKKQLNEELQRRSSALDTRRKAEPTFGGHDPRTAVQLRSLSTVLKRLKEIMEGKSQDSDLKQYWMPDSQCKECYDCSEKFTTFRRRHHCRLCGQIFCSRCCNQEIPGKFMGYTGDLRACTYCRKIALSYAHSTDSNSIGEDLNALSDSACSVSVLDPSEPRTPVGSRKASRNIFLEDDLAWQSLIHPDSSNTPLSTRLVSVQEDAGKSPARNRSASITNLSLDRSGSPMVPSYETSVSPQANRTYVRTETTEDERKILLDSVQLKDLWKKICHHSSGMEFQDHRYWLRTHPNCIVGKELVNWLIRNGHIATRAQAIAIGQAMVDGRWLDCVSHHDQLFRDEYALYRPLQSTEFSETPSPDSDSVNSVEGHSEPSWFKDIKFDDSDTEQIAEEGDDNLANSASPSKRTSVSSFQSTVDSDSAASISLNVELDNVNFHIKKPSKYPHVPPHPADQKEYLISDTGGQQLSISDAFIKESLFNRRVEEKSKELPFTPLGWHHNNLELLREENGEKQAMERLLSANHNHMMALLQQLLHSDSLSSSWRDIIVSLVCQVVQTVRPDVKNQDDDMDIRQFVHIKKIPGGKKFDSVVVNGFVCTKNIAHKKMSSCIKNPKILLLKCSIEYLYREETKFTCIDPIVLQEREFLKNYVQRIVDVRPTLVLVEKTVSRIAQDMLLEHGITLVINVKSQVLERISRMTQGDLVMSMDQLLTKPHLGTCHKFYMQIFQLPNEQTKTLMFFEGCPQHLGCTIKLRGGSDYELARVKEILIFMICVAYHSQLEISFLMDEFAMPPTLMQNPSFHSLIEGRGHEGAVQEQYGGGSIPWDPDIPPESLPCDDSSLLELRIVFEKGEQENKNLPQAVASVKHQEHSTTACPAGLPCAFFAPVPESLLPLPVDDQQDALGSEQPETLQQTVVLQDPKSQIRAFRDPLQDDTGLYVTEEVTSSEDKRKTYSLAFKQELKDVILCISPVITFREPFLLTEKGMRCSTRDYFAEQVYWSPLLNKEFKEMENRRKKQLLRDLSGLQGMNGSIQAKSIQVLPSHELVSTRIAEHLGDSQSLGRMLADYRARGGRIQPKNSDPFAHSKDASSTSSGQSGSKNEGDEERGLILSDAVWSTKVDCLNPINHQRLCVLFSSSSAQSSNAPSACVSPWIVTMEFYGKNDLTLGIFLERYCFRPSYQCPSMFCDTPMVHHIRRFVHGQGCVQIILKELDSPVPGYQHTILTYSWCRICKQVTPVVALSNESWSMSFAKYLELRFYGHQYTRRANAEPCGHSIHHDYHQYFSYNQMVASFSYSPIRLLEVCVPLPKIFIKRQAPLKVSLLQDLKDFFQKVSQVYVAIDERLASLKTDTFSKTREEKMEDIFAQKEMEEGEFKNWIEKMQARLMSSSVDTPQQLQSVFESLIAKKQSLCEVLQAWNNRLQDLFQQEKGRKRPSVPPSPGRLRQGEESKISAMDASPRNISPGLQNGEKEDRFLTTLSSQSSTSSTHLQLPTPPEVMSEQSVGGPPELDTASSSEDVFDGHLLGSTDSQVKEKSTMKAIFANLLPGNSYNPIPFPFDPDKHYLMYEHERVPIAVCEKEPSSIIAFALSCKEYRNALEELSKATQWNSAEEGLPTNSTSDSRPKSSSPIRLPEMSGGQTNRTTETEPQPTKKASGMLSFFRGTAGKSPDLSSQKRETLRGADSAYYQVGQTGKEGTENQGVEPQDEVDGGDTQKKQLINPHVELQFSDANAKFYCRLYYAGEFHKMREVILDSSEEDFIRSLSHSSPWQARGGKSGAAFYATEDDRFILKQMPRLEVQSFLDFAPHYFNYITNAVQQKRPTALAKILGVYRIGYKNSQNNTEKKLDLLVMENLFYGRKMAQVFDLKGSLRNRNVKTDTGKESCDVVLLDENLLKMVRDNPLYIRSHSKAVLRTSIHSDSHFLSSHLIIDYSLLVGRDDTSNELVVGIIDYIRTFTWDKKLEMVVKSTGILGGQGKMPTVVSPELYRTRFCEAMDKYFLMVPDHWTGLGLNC
Experiment [9] has as its target Tyrosine-protein kinase CSK (Homo sapiens, UniProt P41240). The experiment is described as follows: Inhibition of CSK ACT labeling site harbouring VSDFGLTKEASSTQDTGK in human Huh-7 cells at 1 uM by KiNativ Profiling analysis relative to control. Type of experiment: cell-based.
The target in experiment [10] is Phosphatidylinositol 4-kinase alpha (Homo sapiens) (UniProt P42356). The experiment is described as follows: Inhibition of PI4KA ATP labeling site in human Huh-7 cell lysate at 1 uM by KiNativ Profiling analysis relative to control. The format is subcellular.

Calls of active or inactive are those of the source. The calls are words filed in the database; no cut-off is given here.

What is called inhibition is the relative decrease from the control value, in per cent.

cAMP-dependent protein kinase catalytic subunit PRKX (Homo sapiens), sequence (P51817 whole entry): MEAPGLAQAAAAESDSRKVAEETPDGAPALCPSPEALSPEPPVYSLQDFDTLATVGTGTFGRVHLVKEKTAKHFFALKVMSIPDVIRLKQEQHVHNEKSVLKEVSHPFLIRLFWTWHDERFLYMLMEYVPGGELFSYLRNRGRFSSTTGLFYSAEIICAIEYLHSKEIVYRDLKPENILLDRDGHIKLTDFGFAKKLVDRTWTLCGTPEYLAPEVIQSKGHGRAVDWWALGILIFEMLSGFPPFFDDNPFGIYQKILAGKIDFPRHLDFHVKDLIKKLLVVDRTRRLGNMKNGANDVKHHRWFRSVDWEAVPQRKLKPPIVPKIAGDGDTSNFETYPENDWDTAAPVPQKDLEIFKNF
Serine/threonine-protein kinase RIO3 (Homo sapiens), sequence (O14730 whole entry): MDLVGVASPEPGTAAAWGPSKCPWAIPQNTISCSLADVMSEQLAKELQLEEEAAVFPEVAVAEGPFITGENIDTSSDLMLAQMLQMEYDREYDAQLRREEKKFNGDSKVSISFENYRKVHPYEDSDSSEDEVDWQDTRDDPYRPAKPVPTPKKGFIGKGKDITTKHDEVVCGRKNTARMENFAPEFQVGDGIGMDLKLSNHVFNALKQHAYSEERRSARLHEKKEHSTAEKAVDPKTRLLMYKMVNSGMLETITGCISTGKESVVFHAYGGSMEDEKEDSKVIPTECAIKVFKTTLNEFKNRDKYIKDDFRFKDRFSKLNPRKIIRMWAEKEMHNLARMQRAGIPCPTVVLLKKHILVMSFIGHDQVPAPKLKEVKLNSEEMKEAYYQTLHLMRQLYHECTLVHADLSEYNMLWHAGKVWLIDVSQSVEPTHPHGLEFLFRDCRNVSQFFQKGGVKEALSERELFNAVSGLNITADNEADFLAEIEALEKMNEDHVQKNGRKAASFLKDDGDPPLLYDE
Tyrosine-protein kinase CSK, sequence (P41240 2-450 limits assumed): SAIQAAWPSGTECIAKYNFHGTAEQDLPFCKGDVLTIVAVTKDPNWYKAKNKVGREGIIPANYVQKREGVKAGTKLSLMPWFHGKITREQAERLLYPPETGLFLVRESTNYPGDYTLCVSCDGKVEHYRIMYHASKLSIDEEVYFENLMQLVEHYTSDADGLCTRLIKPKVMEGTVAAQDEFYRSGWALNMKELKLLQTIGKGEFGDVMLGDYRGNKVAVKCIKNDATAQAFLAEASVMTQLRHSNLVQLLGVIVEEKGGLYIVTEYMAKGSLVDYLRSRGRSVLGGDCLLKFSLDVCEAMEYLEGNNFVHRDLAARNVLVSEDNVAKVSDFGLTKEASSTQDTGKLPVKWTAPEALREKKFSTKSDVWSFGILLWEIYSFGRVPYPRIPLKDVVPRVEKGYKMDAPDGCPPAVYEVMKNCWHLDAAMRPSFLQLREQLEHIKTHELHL

In the case of `CCN1CCN(Cc2ccc(NC(=O)c3ccc(C)c(/C=C/c4cnc5[nH]ccc5c4OC)c3)cc2C(F)(F)F)CC1`, the inhibition in [1] is 5.8%; in experiment [2], 77%; in experiment [3], -6.1%. The molecule also had a residual activity in [4] of 2%.
Consider `CCN1CCN(Cc2ccc(NC(=O)c3ccc(C)c(Oc4ccnc5[nH]ccc45)c3)cc2C(F)(F)F)CC1`, for which the inhibition in experiment [5] was 5.8%; in [8], -3.1%. Further, the inhibition result in experiment [6] and in experiment [7] was “inactive” throughout.
For `CNc1cc(Oc2cc(C(=O)Nc3cc(N4CCN(C)CC4)cc(C(F)(F)F)c3)ccc2C)ncn1`, the results for the inhibition in experiment [9] and in experiment [10] were 16.6% and 2%, respectively.
